From PMC6100073, “Activation of Anthracene Endoperoxides in Leishmania and Impairment of Mitochondrial Functions” (Molecules : A Journal of Synthetic Chemistry and Natural …, 2018) come the findings set out here.

One assay deals with LtP. Nature of the assay: O2 consumption of LtP (OxoPlates). The class given is cell-based, Leishmania tarentolae. The note with it: 140 × 10^6 LtP/mL, 40 min; for influence on LtP respiration (oxygen consumption rate): 6.25–200 µM. The protocol:
Oxygen consumption rates of LtP treated with AcEPs were measured using round-bottomed OxoPlates (OP96U, Precision Sensing GmbH, Regensburg, Germany). An aliquot of BHI culture medium was transferred to an open Erlenmeyer flask and was stirred on a magnetic stirrer for 30 min at 25 °C to saturate it with air (aBHI). Another aliquot of BHI culture medium was mixed with approximately 50 mg of the reducing agent sodium dithionite in a tightly closed falcon tube to remove the dissolved oxygen (dBHI). Aliquots of 200 µL of both calibration media were distributed to 6 wells each of the first row of an OxoPlate. To prevent oxygen exchange with the environment, 70 µL of paraffin oil were layered on top of each well containing liquid. The plate was then incubated in the dark for 15 min at 25 °C for equilibration. Then the fluorescence of both calibration media was measured at a microplate reader (Perkin Elmer Enspire, Germany) in a dual kinetic mode using an excitation wavelength of 540 nm for both of the dyes, emission wavelengths of 650 nm for the indicator dye, and 590 nm for the reference dye. The ratio of both intensities (IR) was calculated for each well and averaged giving the two calibration constants k0 or k100. From the second row on, each well was filled with 50 µL of aBHI. The third row was provided with extra 50 µL of aBHI. The respective amounts of the anthracene derivatives (Ac, AQ, AcEP1117, AcEP1118, AcEP1129, AcEP1130) were added and mixed properly. A serial dilution was performed by transferring 50 µL of the mixture in five subsequent 1:2 steps. LtP (140 × 10^6 cells/mL) were suspended in aBHI and aliquots of 150 µL were transferred to each well giving a maximal final concentration of the AcEPs of 200 µM, declining with onward 1:2 dilution steps. On top of each well, 70 µL of paraffin oil was added. The fluorescence intensity of each well was determined in 5 min intervals over 40 min. Each concentration was measured in quadruplicates. The oxygen concentration was calculated using the following equation (PreSens–Precision Sensing GmbH):O2 [µM] = 100 × (k0/IR − 1) / (k0/k100 − 1) × 2.83
The slope of the change of the oxygen concentrations over time was calculated giving the oxygen consumption rate [µM/min] for each well. The value obtained for aBHI was subtracted to eliminate the influence of the medium. The rate was finally normalized to the oxygen consumption rate of the wells that did contain cells but no test compounds.

The test system of assay [1] is Leishmania tarentolae promastigotes (LtP). Nature of the assay: Resazurin viability assay in Leishmania tarentolae promastigotes. Format: cell-based. As for the experimental part:
Leishmania tarentolae promastigotes (LtP) strain P10 from Jena Bioscience (Jena, Germany) were cultivated in brain heart infusion (BHI) medium (37 g/L) that was supplemented with 5 mg/L hemin, 25,000 U/L penicillin and 25 mg/L streptomycin at 26 °C. LtP were always used one day after being passaged, when the cells were in the logarithmic growth phase. The cell count was determined by measuring the optical density (OD) at a wavelength of 600 nm using a U1100 photometer (Hitachi, Tokyo, Japan). The number of the cells was subsequently calculated according to a calibration curve.
LtP (2 × 10^6 cells/mL) in a mixture of YEM and PBS (1:1, v/v) containing 25,000 U/L penicillin, 25 mg/L streptomycin, and 6 µM hemin (YEM/PBS) were prepared. Aliquots of 200 µL of this suspension were distributed in 96-well plates. Control rows containing YEM/PBS (no activity) and with untreated LtP (100% activity) were also loaded on the plate. To the wells of third rows, compounds (leading to a final vehicle concentration of max. 2% dimethyl sulfoxide (DMSO) in the wells) were added. Subsequently, five 1:5 serial dilution steps were performed. The plates were incubated at 26 °C for 48 h. Following the incubation, 50 µL of a resazurin solution in PBS were added to each well, giving a final concentration of 20 µM. After 4 h of incubation, the fluorescence was measured at 560 nm excitation and 590 nm emission using a plate reader (Perkin Elmer Enspire, Germany). The resazurin assays with J774 cells were performed in analogy to the LtP resazurin assays. Aliquots of a J774 cell suspension in DMEM supplemented with 25,000 U/L penicillin, 25 mg/L streptomycin, and 10% FCS (heat-inactivated), giving a final cell concentration of 10^5 cells/mL, were distributed in the wells of the 96-well microplates. The cells were incubated for 24 h (37 °C, 5% CO2) to allow attachment. Then the medium was discarded and non-adherent cells were removed with 200 µL PBS per well. After the addition of DMEM, the compounds were added, and a serial dilution was performed. Control rows with DMEM (no activity) and with untreated J774 cells (100% activity) were also included. The plates were incubated again for 24 h at 37 °C and 5% CO2. Then the addition of resazurin and the measurement of fluorescence were carried out in analogy to the viability assays performed in LtP.
Calculations were carried out using Microsoft Excel (Microsoft). The graphs were created using Origin 6.1 (OriginLab Corporation, Northampton, MA, USA). The half maximal inhibitory concentrations (IC50) were determined from non-linear concentration–response curves using a four-parameter logistic model and expressed as the mean ± standard deviation (SD). Statistically significant differences of p <0.05 were identified using Students t-test.
Background: Resazurin is reduced to fluorescent resorufin, in cell work by metabolically active cells.

Where [2] appears, read: Leishmania tarentolae, 48 h, resazurin assay, endpoint at 48 h, 2 × 10^6 LtP/mL, read-out: IC50 (µM) Mean ± SD LtP.

The structures appear in SMILES notation. Like-named read-outs stand apart in the source and are kept apart here.

On to `O=C1c2ccccc2C(=O)c2ccccc21` [AQ, anthraquinone, reference compound], for which the “influence on LtP respiration (oxygen consumption rate)” value (“influence on LtP respiration” below) in the assay with LtP is on record as “no considerable influence on the LtP respiration up to concentrations of 200 µM”. Also, in assay [1] (setting [2]), the IC50 was 103 ± 17.8 µM.
For the compound `c1ccc2cc3ccccc3cc2c1` [Ac, anthracene], the “influence on LtP respiration” value in the assay with LtP is “no considerable influence on the LtP respiration up to concentrations of 200 µM”. Moreover, the IC50 in assay [1] (Leishmania tarentolae, 48 h, read-out: IC50 (µM) Mean ± SD LtP, resazurin assay, endpoint at 48 h, 2 × 10^6 LtP/mL) is greater than 400 µM.
For `c1ccc2c(c1)C1OOC2c2ccccc21` [AcEP1117, 9,10-dihydro-9,10-epidioxidoanthracene], in the assay on LtP, the “influence on LtP respiration” value is “no considerable influence on the LtP respiration up to concentrations of 200 µM”. In addition, in assay [1] (setting [2]), the IC50 was 5.72 ± 1.92 µM.
In the same order, the values of `CC12OOC(C)(c3ccccc31)c1ccccc12` [AcEP1118, 9,10-dimethyl-9,10-dihydro-9,10-epidioxidoanthracene] are “no considerable influence on the LtP respiration up to concentrations of 200 µM” and 1 ± 0.73 µM.
In the case of `CC12OOC(c3ccccc31)c1ccccc12` [AcEP1129, 9-methyl-9,10-dihydro-9,10-epidioxidoanthracene], the “influence on LtP respiration” value with LtP is listed as “significant decline in the oxygen consumption rate at higher concentrations”. Further, the “concentration from which oxygen consumption is significantly decreased” value in the assay with LtP (p < 0.05 vs 0 µM) is given as 25 µM. In addition, the IC50 in assay [1] (setting [2]) came out at 0.61 ± 0.21 µM.
With `CCc1ccc2c(c1)C1OOC2c2ccccc21` (stereo not drawn) [AcEP1130, 2-ethyl-9,10-dihydro-9,10-epidioxidoanthracene], in the assay with LtP, the “influence on LtP respiration” value is “significant decline in the oxygen consumption rate at higher concentrations”. Besides, the IC50 in assay [1] (setting [2]) was 0.22 ± 0.09 µM.
Consider `N=C(N)c1ccc(OCCCCCOc2ccc(C(=N)N)cc2)cc1` [Pen, pentamidine, reference compound], for which the IC50 in assay [1] (setting [2]) was less than 1 µM; in assay [1] (resazurin assay, endpoint at 48 h, 2 × 10^6 LtP/mL, read-out: IC50 (µM) Mean ± SD LtP) it was 0.84 ± 0.43 µM.
